Laboratory results reported in PubChem BioAssay (NCI).
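Assay format: 96-well plates, 48-hour exposure. TGI: total growth inhibition.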

Experiments:
Test in all cases: NCI-60 cell line screen, 48 h
[1] = tested on: SK-OV-3 ovarian
[2] = tested on: UO-31 renal
[3] = tested on: SK-MEL-2 melanoma
[4] = tested on: T-47D breast
[5] = tested on: MDA-MB-231 breast
[6] = tested on: HOP-92 NSCLC
[7] = tested on: SF-539 CNS
[8] = tested on: SNB-75 CNS
[9] = tested on: OVCAR-3 ovarian
[10] = tested on: DU-145 prostate
[11] = tested on: OVCAR-8 ovarian
[12] = tested on: EKVX NSCLC
[13] = tested on: SW-620 colon
[14] = tested on: MOLT-4 leukemia
[15] = tested on: TK-10 renal
[16] = tested on: KM12 colon
[17] = tested on: HS 578T breast
[18] = tested on: OVCAR-5 ovarian
[19] = tested on: SF-295 CNS
[20] = tested on: NCI-H23 lung
[21] = tested on: ACHN renal
[22] = tested on: U251 CNS
[23] = tested on: 786-0 renal
[24] = tested on: SK-MEL-5 melanoma
[25] = tested on: CAKI-1 renal
[26] = tested on: A549 NSCLC
[27] = tested on: CCRF-CEM leukemia
[28] = tested on: LOX IMVI melanoma
[29] = tested on: MCF7 breast
[30] = tested on: HCC-2998 colon
[31] = tested on: MDA-MB-435
[32] = tested on: HOP-62 NSCLC
[33] = tested on: SF-268 CNS
[34] = tested on: NCI-H522 lung
[35] = tested on: SNB-19 CNS
[36] = tested on: HCT-15 colon
[37] = tested on: M14 melanoma
[38] = tested on: UACC-257 melanoma
[39] = tested on: HL-60(TB) leukemia
[40] = tested on: MALME-3M melanoma
[41] = tested on: OVCAR-4 ovarian
[42] = tested on: NCI-H226 lung
[43] = tested on: SN12C renal
[44] = tested on: SR leukemia
[45] = tested on: PC-3 prostate
[46] = tested on: BT-549 breast
[47] = tested on: RPMI-8226 leukemia
[48] = tested on: RXF 393 renal
[49] = tested on: HCT-116 colon
[50] = tested on: HT29 colon
[51] = tested on: NCI/ADR-RES ovarian
[52] = tested on: IGROV1 ovarian
[53] = tested on: K-562 leukemia
[54] = tested on: SK-MEL-28 melanoma
[55] = tested on: UACC-62 melanoma
[56] = tested on: MDA-N
[57] = tested on: COLO 205 colon
[58] = tested on: A498 renal
[59] = tested on: NCI-H460 lung

In the case of CC12CCC(C(=O)n3c1nc1ccccc13)C(C)(C)O2 (centres undefined), the TGI [1] is reported as > 100 µM, the TGI [2] is reported as > 100 µM and the TGI [3] is reported as > 100 µM. For the same compound, the TGI [4] was > 100 µM, the TGI [5] was > 100 µM and the TGI [6] was > 100 µM. For the same compound, the TGI [7] was > 100 µM, the TGI [8] was > 100 µM and the TGI [9] was > 100 µM. For the same compound, the TGI [10] was > 100 µM, the TGI [11] was > 100 µM and the TGI [12] was > 100 µM. For the same compound, the TGI [13] was > 100 µM, the TGI [14] was > 100 µM and the TGI [15] was > 100 µM. The TGI [16] was > 100 µM, the TGI [17] was > 100 µM and the TGI [18] was > 100 µM. For the same compound, the TGI [19] was > 100 µM, the TGI [20] was > 100 µM and the TGI [21] was > 100 µM. The TGI [22] was > 100 µM, the TGI [23] was > 100 µM and the TGI [24] was > 100 µM. The TGI [25] was > 100 µM, the TGI [26] was > 100 µM and the TGI [27] was > 100 µM. For the same compound, the TGI [28] was > 100 µM, the TGI [29] was > 100 µM and the TGI [30] was > 100 µM. For the same compound, the TGI [31] was > 100 µM, the TGI [32] was > 100 µM and the TGI [33] was > 100 µM. For the same compound, the TGI [34] was > 100 µM, the TGI [35] was > 100 µM and the TGI [36] was > 100 µM. The TGI [37] was > 100 µM, the TGI [38] was > 100 µM and the TGI [39] was > 100 µM. For the same compound, the TGI [40] was > 100 µM, the TGI [41] was > 100 µM and the TGI [42] was > 100 µM. For the same compound, the TGI [43] was > 100 µM, the TGI [44] was > 100 µM and the TGI [45] was > 100 µM. The TGI [46] was > 100 µM, the TGI [47] was > 100 µM and the TGI [48] was > 100 µM. The TGI [49] was > 100 µM, the TGI [50] was > 100 µM and the TGI [51] was > 100 µM. For the same compound, the TGI [52] was > 100 µM, the TGI [53] was > 100 µM and the TGI [54] was > 100 µM. For the same compound, the TGI [55] was > 100 µM, the TGI [56] was > 100 µM and the TGI [57] was > 100 µM.

For COC(=O)CNC(=O)c1cc(C)cc2c1Oc1c(cc(C)cc1C(=O)NCC(=O)OC)S2, the TGI [1] was > 100 µM, the TGI [3] was > 100 µM and the TGI [4] was > 100 µM. For the same compound, the TGI [5] was > 100 µM, the TGI [6] was 57.2 µM and the TGI [7] was 43.7 µM. For the same compound, the TGI [8] was > 100 µM, the TGI [9] was > 100 µM and the TGI [10] was > 100 µM. For the same compound, the TGI [11] was > 100 µM, the TGI [12] was > 100 µM and the TGI [13] was > 100 µM. For the same compound, the TGI [14] was > 100 µM, the TGI [15] was > 100 µM and the TGI [16] was > 100 µM. For the same compound, the TGI [17] was > 100 µM, the TGI [18] was > 100 µM and the TGI [19] was > 100 µM. For the same compound, the TGI [20] was > 100 µM, the TGI [21] was 58.4 µM and the TGI [22] was > 100 µM. For the same compound, the TGI [23] was > 100 µM, the TGI [25] was > 100 µM and the TGI [26] was > 100 µM. The TGI [27] was > 100 µM, the TGI [28] was > 100 µM and the TGI [29] was > 100 µM. The TGI [30] was > 100 µM, the TGI [31] was > 100 µM and the TGI [32] was > 100 µM. The TGI [33] was > 100 µM, the TGI [34] was > 100 µM and the TGI [35] was > 100 µM. The TGI [36] was > 100 µM, the TGI [37] was > 100 µM and the TGI [38] was > 100 µM. For the same compound, the TGI [40] was 40.7 µM, the TGI [41] was > 100 µM and the TGI [42] was > 100 µM. The TGI [43] was > 100 µM, the TGI [44] was > 100 µM and the TGI [45] was > 100 µM. For the same compound, the TGI [46] was > 100 µM, the TGI [47] was > 100 µM and the TGI [48] was 69.4 µM. The TGI [49] was > 100 µM, the TGI [50] was > 100 µM and the TGI [51] was > 100 µM. The TGI [52] was > 100 µM, the TGI [53] was > 100 µM and the TGI [54] was > 100 µM. For the same compound, the TGI [55] was > 100 µM, the TGI [56] was > 100 µM and the TGI [57] was 70.9 µM.

COC1(OC)C[C@H](C)[C@@]23O[C@]24C2=CC(=O)C=CC2=N[C@H]3C#C/C=C\C#C[C@]14O was tested, and the TGI [1] was 2.89 µM, the TGI [2] was 1.76 µM and the TGI [3] was 3.58 µM. It also gave a TGI [4] of 2.56 µM, a TGI [5] of 2.06 µM and a TGI [6] of 1.8 µM. The TGI [7] was 1.93 µM, the TGI [8] was 1.58 µM and the TGI [9] was 1.93 µM. It also gave a TGI [10] of 2.24 µM, a TGI [12] of 2.21 µM and a TGI [13] of 3.42 µM. For the same compound, the TGI [14] was 0.106 µM, the TGI [15] was 2.1 µM and the TGI [16] was 1.88 µM. It also gave a TGI [17] of 5.09 µM, a TGI [18] of 1.8 µM and a TGI [19] of 6.65 µM. The TGI [58] was 2.11 µM, the TGI [20] was 2.05 µM and the TGI [21] was 0.965 µM. The TGI [22] was 1.82 µM, the TGI [23] was 0.574 µM and the TGI [24] was 1.56 µM. The TGI [25] was 1.4 µM, the TGI [26] was 1.78 µM and the TGI [27] was 0.811 µM. It also gave a TGI [29] of 1.4 µM, a TGI [30] of 2.13 µM and a TGI [31] of 1.7 µM. The TGI [32] was 2.25 µM, the TGI [33] was 12.2 µM and the TGI [35] was 3.02 µM. It also gave a TGI [37] of 1.82 µM, a TGI [38] of 5.16 µM and a TGI [39] of 0.318 µM. The TGI [40] was 2.1 µM, the TGI [41] was 1.74 µM and the TGI [42] was 2.6 µM. For the same compound, the TGI [44] was 0.4 µM, the TGI [45] was 2.09 µM and the TGI [46] was 2.2 µM. The TGI [47] was 0.56 µM, the TGI [48] was 2.49 µM and the TGI [49] was 1.35 µM. The TGI [50] was 1.25 µM, the TGI [51] was 36.1 µM and the TGI [52] was 2.37 µM. The TGI [54] was 2.51 µM, the TGI [55] was 2.93 µM and the TGI [59] was 1.42 µM. It also gave a TGI [56] of 2.28 µM and a TGI [57] of 2.14 µM.
